# Assay results taken from patent US20230241071A1, “COMBINATION TREATMENT OF LIVER DISORDERS” (Terns Pharmaceuticals, Inc., priority 2021, published 2023).
# “Also recorded” adds a separate entry of the source. Like-named read-outs stand apart in the source and are kept apart here. Marks after values point to notes of the source that are not given here.
# Legend:
# THR-β = target: T1, THR-β (Homo sapiens, UniProt P10828); test: Agonistic activity toward the thyroxine receptor beta; assay type: biochemical
# T1 sequence (P10828 1-461): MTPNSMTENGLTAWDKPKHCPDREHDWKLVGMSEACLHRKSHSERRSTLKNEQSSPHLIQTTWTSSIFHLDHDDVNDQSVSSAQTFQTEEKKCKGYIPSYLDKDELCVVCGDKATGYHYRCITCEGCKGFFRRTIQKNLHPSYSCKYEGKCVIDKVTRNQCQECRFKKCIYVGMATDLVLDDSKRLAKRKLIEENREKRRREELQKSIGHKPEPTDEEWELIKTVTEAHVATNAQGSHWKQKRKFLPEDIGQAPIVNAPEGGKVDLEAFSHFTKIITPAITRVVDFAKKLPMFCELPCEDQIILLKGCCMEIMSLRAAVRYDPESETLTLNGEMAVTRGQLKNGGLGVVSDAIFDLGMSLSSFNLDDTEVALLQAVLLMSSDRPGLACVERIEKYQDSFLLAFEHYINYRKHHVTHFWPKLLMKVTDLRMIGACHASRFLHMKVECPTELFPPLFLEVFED
# [1] = Single-ascending dose trial of Compound 2 in healthy participants: safety and PK; assay type: in vivo, human; details: for half-life / AUC(0-inf) / Cmax / Tmax: human, plasma, oral; for AUC(0-inf) / Cmax: mean; for fe, fraction of dose excreted in urine as unmodified compound 2: mean (% CV)
# Description: A single-ascending dose clinical trial of Compound 2 (potassium salt) was performed.
# Compound 2 plasma and urine concentrations were determined using validated liquid chromatography-tandem mass spectrometry assay
# Urine samples for Compound 2 concentration and PK sampling were collected pre-dose and at the following timepoints: 0-6 hours, 6-12 hours, 12-24 hours, and 24-48 hours. PK parameters were estimated via noncompartmental methods using Phoenix® WinNonlin® (Certara, LP, Princeton, N.J.). Concentrations of serum pharmacodynamic (PD) biomarkers apolipoprotein B (Apo B) and sex hormone binding globulin (SHBG) were measured using an immunoassay and serum lipids were determined using spectrophotometry.
# SSAO [2] = target: T2, SSAO (Homo sapiens, UniProt Q16853); test: Plasma SSAO/amine oxidase activity and methylamine after a single dose of Compound 1; assay type: in vivo
# T2 construct: from tissue; host or cells: human plasma from dosed participants
# T2 sequence (Q16853 29-763 limits assumed): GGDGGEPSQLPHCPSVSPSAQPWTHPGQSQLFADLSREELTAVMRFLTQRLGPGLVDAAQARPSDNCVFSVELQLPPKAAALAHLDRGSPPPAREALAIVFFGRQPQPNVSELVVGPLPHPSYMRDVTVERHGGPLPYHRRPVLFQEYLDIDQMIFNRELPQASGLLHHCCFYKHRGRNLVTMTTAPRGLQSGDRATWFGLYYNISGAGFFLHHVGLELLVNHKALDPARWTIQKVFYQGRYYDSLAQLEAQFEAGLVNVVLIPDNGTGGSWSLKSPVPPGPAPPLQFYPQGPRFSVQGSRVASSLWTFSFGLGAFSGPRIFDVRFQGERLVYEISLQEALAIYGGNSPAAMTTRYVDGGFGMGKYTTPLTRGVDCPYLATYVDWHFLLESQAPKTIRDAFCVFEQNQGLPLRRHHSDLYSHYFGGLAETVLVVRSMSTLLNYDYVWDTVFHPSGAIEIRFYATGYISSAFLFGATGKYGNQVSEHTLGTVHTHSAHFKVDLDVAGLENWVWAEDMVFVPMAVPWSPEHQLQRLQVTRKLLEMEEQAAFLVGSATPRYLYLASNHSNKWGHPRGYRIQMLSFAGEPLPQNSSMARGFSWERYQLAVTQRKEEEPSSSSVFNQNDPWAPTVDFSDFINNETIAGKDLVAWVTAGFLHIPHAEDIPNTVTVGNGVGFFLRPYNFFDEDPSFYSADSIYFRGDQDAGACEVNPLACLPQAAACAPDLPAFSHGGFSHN
# Description: Safety was assessed for 7 (±3) days after dosing.
# Plasma PK parameters were determined by non-compartmental analysis.
# SSAO-specific amine oxidase levels in plasma were determined using a kinetic-based assay essentially as described previously (Schilter et al). Endogenous monoamine oxidases A and B were inhibited by adding pargyline to plasma samples prior to measuring H2O2 generation levels in placebo and active recipients.
# SSAO [3] = target: T2, SSAO; test: Plasma SSAO activity and methylamine, multiple doses of Compound 1; assay type: in vivo
# Description: A multiple-ascending dose clinical trial of Compound 1 was performed.
# VAP-1 = target: T3, VAP-1 (Homo sapiens, UniProt Q16853); test: Compound 1 10 mg QD for 12 weeks in adults with non-cirrhotic NASH phenotype; assay type: in vivo
# T3 construct: from tissue; host or cells: plasma of trial patients
# T3 sequence (Q16853 29-763 limits assumed): T2 sequence (Q16853 29-763 limits assumed)
# Description: Part 1 interim analysis primary endpoint was safety assessed by adverse events (AEs) and laboratory tests; percent change from baseline (BL) in plasma VAP-1 activity was a secondary endpoint. Exploratory imaging and blood-based biomarkers of liver inflammation and fibrosis were also assessed. Analyses of change (or percent change) from baseline used an ANCOVA model with change (or percent change) from baseline as the dependent variable including treatment group and randomization strata as fixed effects and baseline as a covariate.
# [4] = single dose 3 mg, fasted (n = 6)
# [5] = single dose 10 mg, fasted (n = 6)
# [6] = single dose 30 mg, fasted (n = 6)
# [7] = single dose 60 mg, fasted (n = 6)
compound,measurement,setting,value
"N#Cc1nn(-c2cc(Cl)c(Oc3n[nH]c(=O)c4ccccc34)c(Cl)c2)c(=O)[nH]c1=O [Compound 2, 2-(3,5-dichloro-4-((4-oxo-3,4-dihydrophthalazin-1-yl)oxy)phenyl)-3,5-dioxo-2,3,4,5-tetrahydro-1,2,4-triazine-6-carbonitrile]",EC50,THR-β,1750 nM
same,heart rates,[1]; 24 hours after single dose,remained stable and within the normal range
same,renal excretion,[1]; all single doses,Minimal renal excretion
same,half-life,"[1]; 3 mg, single dose 3 mg, fasted (n = 6), median (min-max), read-out: t1/2 (converted)",17.3 h
same,half-life,"[1]; 10 mg, single dose 10 mg, fasted (n = 6), median (min-max), read-out: t1/2 (converted)",14.4 h
same,half-life,"[1]; 30 mg, single dose 30 mg, fasted (n = 6), median (min-max), read-out: t1/2 (converted)",15.7 h
same,half-life,"[1]; 60 mg, single dose 60 mg, fasted (n = 6), median (min-max), read-out: t1/2 (converted)",13.8 h
same,half-life,"[1]; single dose 3-60 mg, read-out: half-life (median) across single dose levels",13.8 to 17.3 h
same,AUC(0-inf),[1]; [4],4060 ng·h/mL
same,Cmax,[1]; [4],217 ng/mL
same,Tmax,"[1]; single dose 3 mg, fasted (n = 6), median (min-max)",4 h
same,AUC(0-inf),[1]; [5],8110 ng·h/mL
same,Cmax,[1]; [5],614 ng/mL
same,Tmax,"[1]; single dose 10 mg, fasted (n = 6), median (min-max)",4 h
same,AUC(0-inf),[1]; [6],33000 ng·h/mL
same,Cmax,[1]; [6],1800 ng/mL
same,Tmax,"[1]; single dose 30 mg, fasted (n = 6), median (min-max)",4 h
same,AUC(0-inf),[1]; [7],50000 ng·h/mL
same,Cmax,[1]; [7],3300 ng/mL
same,Tmax,"[1]; single dose 60 mg, fasted (n = 6), median (min-max)",4 h
same,overall safety and tolerability,[1]; single ascending doses up to 60 mg,safe and well-tolerated
same,AEs by relationship to drug: Not related,[1]; single dose 3 mg (n = 6),2 (33.3%)
same,AEs by relationship to drug: Possibly related,[1]; single dose 3 mg (n = 6),0
same,AEs by relationship to drug: Related,[1]; single dose 3 mg (n = 6),0
same,AEs by relationship to drug: Unlikely related,[1]; single dose 3 mg (n = 6),0
same,"Any AE, all CTCAE grades",[1]; single dose 3 mg (n = 6),2 (33.3%)
same,CTCAE Grade 1 AEs,[1]; single dose 3 mg (n = 6),0
same,CTCAE Grade 2 AEs,[1]; single dose 3 mg (n = 6),0
same,CTCAE Grade 3 or higher AEs,[1]; single dose 3 mg (n = 6),0
same,Serious AEs,[1]; single dose 3 mg (n = 6),0
same,"fe, fraction of dose excreted in urine as unmodified compound 2",[1]; [4],"2.95 (62) % dose, urine"
same,AEs by relationship to drug: Not related,[1]; single dose 10 mg (n = 6),0
same,AEs by relationship to drug: Possibly related,[1]; single dose 10 mg (n = 6),0
same,AEs by relationship to drug: Related,[1]; single dose 10 mg (n = 6),0
same,AEs by relationship to drug: Unlikely related,[1]; single dose 10 mg (n = 6),0
same,"Any AE, all CTCAE grades",[1]; single dose 10 mg (n = 6),0
same,CTCAE Grade 1 AEs,[1]; single dose 10 mg (n = 6),0
same,CTCAE Grade 2 AEs,[1]; single dose 10 mg (n = 6),0
same,CTCAE Grade 3 or higher AEs,[1]; single dose 10 mg (n = 6),0
same,Serious AEs,[1]; single dose 10 mg (n = 6),0
same,"fe, fraction of dose excreted in urine as unmodified compound 2",[1]; [5],"2.05 (74) % dose, urine"
same,AEs by relationship to drug: Not related,[1]; single dose 30 mg (n = 6),1 (16.7%)
same,AEs by relationship to drug: Possibly related,[1]; single dose 30 mg (n = 6),1 (16.7%)*
same,AEs by relationship to drug: Related,[1]; single dose 30 mg (n = 6),0
same,AEs by relationship to drug: Unlikely related,[1]; single dose 30 mg (n = 6),0
same,"Any AE, all CTCAE grades",[1]; single dose 30 mg (n = 6),2 (33.3%)
same,CTCAE Grade 1 AEs,[1]; single dose 30 mg (n = 6),1 (16.7%)
same,CTCAE Grade 2 AEs,[1]; single dose 30 mg (n = 6),1 (16.7%)
same,CTCAE Grade 3 or higher AEs,[1]; single dose 30 mg (n = 6),0
same,Serious AEs,[1]; single dose 30 mg (n = 6),0
same,"fe, fraction of dose excreted in urine as unmodified compound 2",[1]; [6],"1.78 (35) % dose, urine"
same,AEs by relationship to drug: Not related,[1]; single dose 60 mg (n = 6),0
same,AEs by relationship to drug: Possibly related,[1]; single dose 60 mg (n = 6),0
same,AEs by relationship to drug: Related,[1]; single dose 60 mg (n = 6),0
same,AEs by relationship to drug: Unlikely related,[1]; single dose 60 mg (n = 6),0
same,"Any AE, all CTCAE grades",[1]; single dose 60 mg (n = 6),0
same,CTCAE Grade 1 AEs,[1]; single dose 60 mg (n = 6),0
same,CTCAE Grade 2 AEs,[1]; single dose 60 mg (n = 6),0
same,CTCAE Grade 3 or higher AEs,[1]; single dose 60 mg (n = 6),0
same,Serious AEs,[1]; single dose 60 mg (n = 6),0
same,"fe, fraction of dose excreted in urine as unmodified compound 2",[1]; [7],"1.53 (53) % dose, urine"
same,"TSH, free T3, and free T4 levels",[1]; single dose 3-60 mg,remained within the normal range
same,cardiac related AEs,[1]; single dose 3-60 mg,No cardiac related AEs
same,"exposures (AUC, Cmax), dose proportionality",[1]; single dose 3-60 mg,approximately dose-proportional
same,half-life (median) across single dose levels,[1]; single dose 3-60 mg,> 13 h
same,severity of adverse events,[1]; single dose 3-60 mg,mild or moderate
same,subjects with increases in ALT more than 2-times greater than ULN,[1]; single dose 3-60 mg,No subjects
"COC1CCN(c2ncc(OC/C(=C/F)CN)cn2)CC1 [Compound 1, (E)-3-fluoro-2-(((2-(4-methoxypiperidin-1-yl)pyrimidin-5-yl)oxy)methyl)prop-2-en-1-amine]",inhibition of plasma SSAO activity,"SSAO [2]; 4 hours post-dose, all dose cohorts (1-10 mg)",Near complete inhibition
same,duration of suppression of plasma SSAO activity after a single dose,SSAO [2]; single dose 1-10 mg,up to 1 week
same,plasma methylamine (MMA),SSAO [2]; single dose 1-10 mg,Maximum plasma MMA levels increased; also recorded: Dose-dependent increases
same,suppression of plasma VAP-1/SSAO-specific amine oxidase activity,"SSAO [3]; 10 mg, healthy participants (Example 2)",> 90%
same,inhibition of plasma SSAO activity,"SSAO [3]; Day 1, all dose cohorts",Near complete inhibition
same,plasma methylamine levels,"SSAO [3]; first daily dose 1, 4, 10 mg",increased in a dose proportional manner
same,duration of inhibition of plasma SSAO amine oxidase activity after cessation of dosing,SSAO [3]; multiple QD doses,up to 2 weeks
same,"change from BL in cT1, liver fat fraction, liver enzymes, or cytokeratin-18 vs placebo",VAP-1; 10 mg QD 12 weeks,no statistically significant differences
same,safety and tolerability,VAP-1; 10 mg QD 12 weeks,well-tolerated with a safety profile similar to placebo
same,inhibition at 10 mg,"VAP-1; 10 mg QD, most subjects, by week 2, sustained through week 12, read-out: inhibition of plasma VAP-1 activity",> 98%
